Reference: the supplement of paper PMC10307832

Assays:
Test in all cases: relative viability (nuclei count vs DMSO), 5 days (fraction); higher = more cells survive
[1] = compound: CC[C@@H](C)CNCC(=O)N1CCC2=C([C@@H]1COC3=CC=CC(=C3)C)C=CS2 [RU-SKI 43] + CS(=O)(=O)N1CCN(Cc2cc3nc(-c4cccc5[nH]ncc45)nc(N4CCOCC4)c3s2)CC1 [Pictilisib] (partner 1 µM)
Procedure, shortened: (§1)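 Values are medians from duplicate plates. Each reflects relative viability, defined as the nuclei count of treated wells over that of vehicle wells. Lung cancer cell lines in 1536-well plates were pin-tool dosed one day after seeding with one drug alone or with a fixed anchor-drug dose plus five library-drug doses (not always all listed) in √10 steps, then fixed, stained and imaged at 4× after 5 days.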

[2] = compound: CCc1c2c(nc3ccc(OC(=O)N4CCC(N5CCCCC5)CC4)cc13)-c1cc3c(c(=O)n1C2)COC(=O)[C@]3(O)CC [Irinotecan] + CS(=O)(=O)CCNCc1ccc(-c2ccc3ncnc(Nc4ccc(OCc5cccc(F)c5)c(Cl)c4)c3c2)o1 [Lapatinib] (partner 2 µM)
Procedure, shortened: as §1

[3] = compound: CCc1c2c(nc3ccc(OC(=O)N4CCC(N5CCCCC5)CC4)cc13)-c1cc3c(c(=O)n1C2)COC(=O)[C@]3(O)CC [Irinotecan] + O=C(c1cc(Cc2n[nH]c(=O)c3ccccc23)ccc1F)N1CCN(C(=O)C2CC2)CC1 [Olaparib] (partner 8 µM)
Procedure, shortened: as §1

[4] = compound: CC[C@@H](C)CNCC(=O)N1CCC2=C([C@@H]1COC3=CC=CC(=C3)C)C=CS2 [RU-SKI 43] + CC(=O)c1c(C)c2cnc(Nc3ccc(N4CCNCC4)cn3)nc2n(C2CCCC2)c1=O [Palbociclib] (partner 0.5 µM)
Procedure, shortened: as §1

| Cell Line | relative viability ([1]; first compound 0.1 µM) | relative viability ([1]; first compound 0.3162 µM) | relative viability ([1]; first compound 1 µM) | relative viability ([1]; first compound 3.162 µM) | relative viability ([1]; first compound 10 µM) | relative viability ([2]; first compound 0.6325 µM) | relative viability ([2]; first compound 2 µM) | relative viability ([2]; first compound 6.325 µM) | relative viability ([2]; first compound 20 µM) | relative viability ([3]; first compound 0.6325 µM) | relative viability ([3]; first compound 2 µM) | relative viability ([3]; first compound 6.325 µM) | relative viability ([3]; first compound 20 µM) | relative viability ([4]; first compound 0.1 µM) | relative viability ([4]; first compound 0.3162 µM) | relative viability ([4]; first compound 1 µM) | relative viability ([4]; first compound 3.162 µM) | relative viability ([4]; first compound 10 µM) |
| --- | --- | --- | --- | --- | --- | --- | --- | --- | --- | --- | --- | --- | --- | --- | --- | --- | --- | --- |
| Calu-6 | 0.918 | 1.14 | 0.977 | 0.912 | 0.722 | 0.599 | 0.514 | 0.226 | 0.125 | 0.258 | 0.326 | 0.225 | 0.128 | – | – | – | – | – |
| NCI-H1648 | – | – | – | – | – | – | – | – | – | 0.525 | 0.388 | 0.35 | 0.276 | 0.284 | 0.26 | 0.257 | 0.304 | 0.271 |
| NCI-H522 | – | – | – | – | – | – | – | – | – | 0.493 | 0.532 | 0.453 | 0.525 | 1.22 | 1.08 | 1.18 | 1.29 | 0.977 |
| LOU-NH91 | 0.504 | 0.483 | 0.547 | 0.485 | 0.543 | 0.685 | 0.8 | 0.414 | 0.402 | 0.712 | 0.477 | 0.321 | 0.153 | 0.523 | 0.515 | 0.552 | 0.496 | 0.518 |
| HCC-366 | 0.134 | 0.196 | 0.175 | 0.221 | 0.137 | 0.418 | 0.126 | 0.0457 | 0.0686 | 0.206 | 0.15 | 0.0823 | 0.0649 | 0.274 | 0.447 | 0.416 | 0.396 | 0.264 |
| CAL-12T | 0.772 | 0.334 | 0.624 | 0.397 | 0.461 | 0.71 | 0.543 | 0.475 | 0.442 | 0.494 | 0.44 | 0.288 | 0.297 | 0.413 | 0.474 | 0.365 | 0.457 | 0.391 |
| PC-3 [JPC-3] | 0.768 | 0.69 | 0.805 | 0.816 | 0.683 | 0.3 | 0.45 | 0.311 | 0.316 | 0.766 | 0.908 | 0.448 | 0.221 | 0.534 | 0.479 | 0.561 | 0.558 | 0.343 |
| NCI-H2087 | 0.797 | 0.992 | 1.16 | 0.992 | 0.944 | 0.299 | 0.3 | 0.168 | 0.205 | 0.175 | 0.196 | 0.154 | 0.173 | 0.253 | 0.215 | 0.288 | 0.238 | 0.19 |
| NCI-H1395 | 0.607 | 0.574 | 0.668 | 0.58 | 0.542 | – | 0.732 | 0.531 | 0.361 | – | 0.458 | 0.455 | 0.31 | 0.638 | 0.685 | 0.714 | 0.624 | 0.573 |
| ABC-1 | 0.676 | 0.842 | 0.753 | 0.701 | 0.772 | 1.05 | 1.17 | 0.646 | 0.574 | – | 0.68 | 0.421 | 0.375 | 0.517 | 0.824 | 0.719 | 0.866 | 0.636 |
